Source: publication PMC6150024, “In Vitro Evaluation of Cytotoxicity and Permeation Study on Lysine- and Arginine-Based Lipopeptides with Proven Antimicrobial Activity” (Molecules : A Journal of Synthetic Chemistry and Natural …, 2017)
Values after ≈ are worked out from the molar mass of the structure shown. Read-outs that look alike come from different tables or passages of the source. Residues, ends and D or L forms follow the SMILES beside them. *: point of attachment. Palmitoyl = CCCCCCCCCCCCCCCC(=O)*

Key:
[1] = tested on: HaCaT keratinocytes; assay type: cell-based, human
Description: HaCaT cells were obtained from American Type Culture Collection (ATCC). Cells were cultivated in Dulbecco’s modified Eagle Medium (Invitrogen) with 10% fetal bovine serum in humidified incubator at […] in 5% CO2 and cultured in 96-well plates and allowed to grow to 60–70% confluence prior to the start of the experiments.
The MTT assay is a colorimetric technique for assessing cell metabolic activity based on NAD(P)H-dependent cellular oxidoreductase enzymes activity that, under defined conditions, reflects the number of viable cells present. Viable cells reduce the tetrazolium dye MTT 3-(4,5-dimethylthiazol-2-yl)-2,5-diphenyltetrazolium bromide to its insoluble formazan, which has a purple colour. The colour intensity reflects the number of live cells and can be measured spectrophotometrically. Briefly, one day after culturing 500 cells per well, different concentrations of compounds were applied. After a 24-h incubation with the specified compounds, a medium containing 1 mg/mL MTT was added to the cells (HaCaT keratinocytes) up to a final concentration of 0.5 mg/mL and incubated at 37 °C for 4 h. The medium was then aspired, and the formazan product was solubilized with DMSO. The absorbance at 630 nm (background absorbance) was subtracted and absorbance measured at 570 nm for each well. There were 6 replicates for each tested concentration. All experiments were repeated at least twice. The resulting IC50 values were calculated with a GraFit 7 software (v. 7.0, Erithacus, Berkley, CA, USA).

[2] = assay type: physicochemical
Description: (§1) The compounds were dissolved in a mixture of dimethyl sulphoxide (DMSO) and phosphate buffer (PBS). […] MIC was determined by the serial dilution method on polystyrene 96-well plates with Mueller–Hinton II broth (MHB II) for reference bacterial strains: Staphylococcus aureus (ATCC 25923) and Escherichia coli (ATCC 25922), while for Candida albicans (ATCC 10231), the Sabouraud dextrose broth was applied. The microorganisms were obtained from the Polish Collection of Microorganisms (Wroclaw, Poland). Bacteria were cultured at 37 °C under aerobic conditions overnight in Brain Heart Infusion broth, centrifuged at 1000 rpm for 8 min, washed thrice with PBS and resuspended in MHB II. Candida albicans was cultured in Sabouraud dextrose broth for 48 h at 27 °C under aerobic conditions, centrifuged at 1000 rpm for 8 min, washed thrice with PBS and resuspended in Sabouraud dextrose broth. Bacterial (5 × 10^5 CFU/mL) and fungal (5 × 10^4 CFU/mL) suspensions were exposed to lipopeptides applied at graded concentrations (range 1–512 mg/L) for 18 h at 37 °C under aerobic conditions (bacteria) and 48 h at 27 °C under aerobic conditions (fungi). MIC was taken as the lowest concentration at which no visible growth of bacteria/fungi was observed. MBC and MFC were determined using MH II agar and Sabouraud Dextrose agar, for bacteria and fungi respectively. The contents of wells with MICs and two subsequent higher concentrations were transferred to agar plates and cultivated for 18 h at 37 °C under aerobic conditions (bacteria) and 48 h at 27 °C under aerobic conditions (fungi). The MBC and MFC were taken as the lowest concentrations at which no colony forming units were found. All tests were performed in triplicate.

[3] = tested on: Staphylococcus aureus (ATCC 25923); set-up: method as in 2 sources, ref 11 = [11]; PMID 28203232; doi:10.3389/fmicb.2017.00123; 11. Greber K.E. Dawgul M. Kamysz W. Sawicki W. Cationic net charge and counter ion type as antimicrobial activity determinant factors of short lipopeptides Front. Microbiol. 2017 8 1 10 10.3389/fmicb. ||| ref 12 = [12]; PMID 24748099; doi:10.1007/s00726-014-1744-9; 12. Greber K.E. Dawgul M. Kamysz W. Sawicki W. Łukasiak J. Biological and surface-active properties of double-chain cationic amino acid-based surfactants Amino Acids 2014 46 1893 1898 10.1007/s00726-0; details: cited from earlier work; for MIC S. aureus: ATCC 25923, serial dilution; for MBC S. aureus: ATCC 25923
[4] = tested on: Escherichia coli (ATCC 25922); set-up: method as in 2 sources, ref 11 = [11]; PMID 28203232; doi:10.3389/fmicb.2017.00123; 11. Greber K.E. Dawgul M. Kamysz W. Sawicki W. Cationic net charge and counter ion type as antimicrobial activity determinant factors of short lipopeptides Front. Microbiol. 2017 8 1 10 10.3389/fmicb. ||| ref 12 = [12]; PMID 24748099; doi:10.1007/s00726-014-1744-9; 12. Greber K.E. Dawgul M. Kamysz W. Sawicki W. Łukasiak J. Biological and surface-active properties of double-chain cationic amino acid-based surfactants Amino Acids 2014 46 1893 1898 10.1007/s00726-0; details: cited from earlier work; for MIC E. coli: ATCC 25922, serial dilution; for MBC E. coli: ATCC 25922
[5] = tested on: Candida albicans (ATCC 10231); set-up: method as in 2 sources, ref 11 = [11]; PMID 28203232; doi:10.3389/fmicb.2017.00123; 11. Greber K.E. Dawgul M. Kamysz W. Sawicki W. Cationic net charge and counter ion type as antimicrobial activity determinant factors of short lipopeptides Front. Microbiol. 2017 8 1 10 10.3389/fmicb. ||| ref 12 = [12]; PMID 24748099; doi:10.1007/s00726-014-1744-9; 12. Greber K.E. Dawgul M. Kamysz W. Sawicki W. Łukasiak J. Biological and surface-active properties of double-chain cationic amino acid-based surfactants Amino Acids 2014 46 1893 1898 10.1007/s00726-0; details: cited from earlier work; for MIC C. albicans: ATCC 10231, serial dilution; for MFC C. albicans: ATCC 10231
[6] = tested on: human keratinocytes; details: cited from earlier work
Excerpt: (§2) The results of the MTT assay obtained in this study indicate high toxicity of lipopeptides containing one palmitic acid chain. This contradicts the previously advanced hypotheses about the selectivity of antimicrobial peptides. According to some authors, peptides designed based on naturally occurring compounds in human organisms are expected to be safe to human cells and their selectivity results from the presence of cholesterol and arrangement of lipids in the eukaryotic cell membrane. […] In the previou ...

[7] = tested on: Candida albicans (ATCC 10231); assay type: cell-based; details: ATCC 10231, 48 h
Description: as §1

[8] = tested on: Escherichia coli (ATCC 25922); assay type: cell-based; details: for MBC E. coli / MIC E. coli: ATCC 25922, 18 h
Description: as §1

[9] = tested on: Staphylococcus aureus (ATCC 25923); assay type: cell-based; details: for MBC S. aureus / MIC S. aureus: ATCC 25923, 18 h
Description: as §1

[10] = tested on: human red blood cells; details: cited from earlier work
Excerpt: as §2

[11] = classification of antimicrobial peptides from patent
[12] = MTT assay, 24 h exposure, 6 replicates per concentration, experiments repeated at least twice

Row | Compound | IC50 ± SD on HaCaT keratinocytes ([1]; 24 h) | Concentration at which solutions were obtained [2] [µg/mL] | MFC C. albicans [7] [µg/mL] | MIC C. albicans [7] [µg/mL] | MBC E. coli [8] [µg/mL] | MIC E. coli [8] [µg/mL] | MBC S. aureus [9] [µg/mL] | MIC S. aureus [9] [µg/mL] | further results
1 | CCCCCCCCCCCCCCCC(=O)N[C@@H](CCCCN)C(=O)N[C@@H](CCCCN)C(N)=O [Lipopeptide C16-KK-NH2] | 1.8 ± 0.2 mg/L (≈ 3.52 µM) | 512 |  |  |  |  |  |  | MIC S. aureus ([3]; Table 1 ref 11): 4 µg/mL (≈ 7.82 µM); MBC S. aureus ([3]; Table 1 ref 11): 4 µg/mL (≈ 7.82 µM); MIC E. coli ([4]; Table 1 ref 11): 8 µg/mL (≈ 15.6 µM); MBC E. coli ([4]; Table 1 ref 11): 8 µg/mL (≈ 15.6 µM); MIC C. albicans ([5]; Table 1 ref 11): 128 µg/mL (≈ 250 µM); MFC C. albicans ([5]; Table 1 ref 11): 128 µg/mL (≈ 250 µM); Concentration with negative influence on proliferation and viability of human keratinocytes [6]: ≥ 1 µg/mL
2 | CCCCCCCCCCCCCCCC(=O)N[C@@H](CCCCN)C(=O)N[C@@H](CCCCN)C(=O)N[C@@H](CCCCN)C(N)=O [Lipopeptide C16-KKK-NH2] | 3.2 ± 0.1 mg/L (≈ 5 µM) | 512 |  |  |  |  |  |  | MIC S. aureus ([3]; Table 1 ref 11): 4 µg/mL (≈ 6.25 µM); MBC S. aureus ([3]; Table 1 ref 11): 8 µg/mL (≈ 12.5 µM); MIC E. coli ([4]; Table 1 ref 11): 8 µg/mL (≈ 12.5 µM); MBC E. coli ([4]; Table 1 ref 11): 16 µg/mL (≈ 25 µM); MIC C. albicans ([5]; Table 1 ref 11): 128 µg/mL (≈ 200 µM); MFC C. albicans ([5]; Table 1 ref 11): 128 µg/mL (≈ 200 µM)
3 | CCCCCCCCCCCCCCCC(=O)N[C@@H](CCCCN)C(=O)N[C@@H](CCCNC(=N)N)C(=O)N[C@@H](CCCCN)C(N)=O [Lipopeptide C16-KRK-NH2] (Palmitoyl-Lys-Arg-Lys-NH2) | 2.3 ± 0.4 mg/L (≈ 3.44 µM) | 512 | 256 (≈ 383 µM) | 128 (≈ 192 µM) | 16 (≈ 24 µM) | 8 (≈ 12 µM) | 16 (≈ 24 µM) | 4 (≈ 5.99 µM) | 
4 | CCCCCCCCCCCCCCCC(=O)N[C@@H](CCCCN)C(=O)NCCCC[C@H](N)C(N)=O [Lipopeptide C16-KεK-NH2] | 7.4 ± 0.9 mg/L (≈ 14.5 µM) |  | 256 (≈ 500 µM) | 128 (≈ 250 µM) | 32 (≈ 62.5 µM) | 16 (≈ 31.3 µM) | 8 (≈ 15.6 µM) | 8 (≈ 15.6 µM) | 
5 | CCCCCCCCCCCCCCCC(=O)N[C@@H](CCCNC(=N)N)C(=O)N[C@@H](CCCNC(=N)N)C(N)=O [Lipopeptide C16-RR-NH2] (Palmitoyl-Arg-Arg-NH2) | 1.9 ± 0,3 mg/L |  | 256 (≈ 451 µM) | 128 (≈ 225 µM) | 16 (≈ 28.2 µM) | 16 (≈ 28.2 µM) | 8 (≈ 14.1 µM) | 8 (≈ 14.1 µM) | 
6 | CCCCCCCCCCCCCCCC(=O)N[C@@H](CCCNC(=N)N)C(=O)N[C@@H](CCCNC(=N)N)C(=O)N[C@@H](CCCNC(=N)N)C(N)=O [Lipopeptide C16-RRR-NH2] (Palmitoyl-Arg-Arg-Arg-NH2) | 3.2 ± 1.4 mg/L (≈ 4.42 µM) |  | 256 (≈ 354 µM) | 128 (≈ 177 µM) | 16 (≈ 22.1 µM) | 16 (≈ 22.1 µM) | 4 (≈ 5.52 µM) | 2 (≈ 2.76 µM) | 
7 | (C10)2-KKKK-NH2 |  |  |  |  |  |  |  |  | Activity class against E. coli by classification of Shai and Abrahami [8, 11]: active; Activity class against S. aureus by classification of Shai and Abrahami [9, 11]: highly active; IC50 ± SD on HaCaT keratinocytes [1, 12]: 49.4 ± 9.1 mg/L; MIC S. aureus ([3]; Table 1 ref 12): 8 µg/mL; MBC S. aureus ([3]; Table 1 ref 12): 16 µg/mL; MIC E. coli ([4]; Table 1 ref 12): 16 µg/mL; MBC E. coli ([4]; Table 1 ref 12): 16 µg/mL; MIC C. albicans ([5]; Table 1 ref 12): 128 µg/mL; MFC C. albicans ([5]; Table 1 ref 12): 256 µg/mL; Toxicity towards human red blood cells at microbiologically active concentrations [10]: non-toxic
8 | (C12)2-KKKK-NH2 |  |  |  |  |  |  |  |  | IC50 ± SD on HaCaT keratinocytes [1, 12]: 42.1 ± 9.1 mg/L; MIC S. aureus ([3]; Table 1 ref 12): 16 µg/mL; MBC S. aureus ([3]; Table 1 ref 12): 32 µg/mL; MIC E. coli ([4]; Table 1 ref 12): 64 µg/mL; MBC E. coli ([4]; Table 1 ref 12): 64 µg/mL; MIC C. albicans ([5]; Table 1 ref 12): 256 µg/mL; MFC C. albicans ([5]; Table 1 ref 12): 512 µg/mL
